Assay results: US4001248A, “N-cycloalkylmethyl decahydroisoquinolines” (Eli Lilly and Company, priority 1974, dated 1977)
Values joined by “and” are separate entries in the source; they are usually repeats but may differ in a detail not shown here. Equal entries are not always repeated.

Assays:
toxicity (L.D.50) = format: in vivo, mice; conditions: compared with dl mixture; listed as l(-) isomer
[1] = system: writhing in mice induced by the intraperitoneal injection of acetic acid; experiment: mouse-writhing test (inhibition of writhing induced by intraperitoneal acetic acid); format: in vivo; conditions: reading at 0.25 hours
Text: In the Table, column 1 gives the name of the compund; column 2, the dosage in mg./kg. of mouse weight; column 3, the route of administration of the drug ("S.C." is subcutaneous and "or" is oral); and column 4, the percent inhibition found at the particular dose level. […] Median inhibiting doses (I.D.50) are also included in the Table.

rat tail jerk = rat tail jerk assay (increase in reaction time over control); format: in vivo
Text: The compounds of this invention are also active in the rat tail jerk assay, another standard pharmacologic test for analgesic activity of the opiate-type. Such activity is manifested as an increase in the reaction time of the animal in removing (jerking) its tail from a nearby heat stimulus (a resistance wire) after drug administration compared to control time (no drug administered). Table 2 which follows gives the increased reaction times over control times produced by the compounds of this invention when administered subcutaneously. In Tables 2 and 3, column 1 gives the name of the compound; column 2, the dose; column 3, time of observation after administration of the drug; column 4, the increase in reaction time above control in seconds; and column 5, the level of significance of the results ("p" value). […] All drugs were administered as aqueous solutions. More than one value for a given dose level indicates multiple determinations. The results are not averaged.

[2] = system: morphine induced Straub tail; experiment: blocking of morphine induced Straub tail in mice; format: in vivo; conditions: for blocking on the morphine-induced Straub tail: 15 and 30 minutes before assay
Method: In this assay, a 40 mg./kg. dose of morphine was administered to mice 15 minutes prior to assay, and the test drug at various intervals before assay. Trans-dl-1 -cyclopropylmethyl-3a-(m-hydroxyphenyl)-1,2,3,3a,4,5,6,7,7a,8-decahydroisoquinoline maleate gave a 100 percent block of the Straubed tail effected by a subcutaneous injection of 40 mg./kg. of morphine when the test drug was given at a dose of 50 mg./kg. subcutaneously 15 minutes prior to assay, and 80 percent when given 30 minutes prior to assay. The l(-) isomer gave 100 percent blocking on the morphine-induced Straub tail at 50 and 20 mg./kg. doses 15 and 30 minutes before assay.

morphine = experiment: modified rat tail jerk assay, antagonism of morphine; format: in vivo, rats; conditions: subcutaneous
Method: The ability of the compounds of this invention to antagonize the action of morphine, an opiate, is shown by the following modification of the aforementioned rat tail jerk assay: The standard assay procedure is used with the exception that a 7 amps. current is used instead of a 6 amps. current in the hot wire to decrease the measurable agonist effects of the antagonist. The drugs under test are then administered to groups of rats at different dose levels at different times prior to test, with a 5 mg./kg. dose of morphine invariably being administered 10 minutes prior to test. Positive evidence of antagonism is a decreased reaction time over that to be expected from the morphine. […] Among the compounds of this invention, those in which R in Structure I is cyclopropylmethyl are the preferred antagonists, showing activity in the above test procedure. […] In a series of determinations, it was ascertained that the minimum subcutaneous dose necessary to reduce the analgesic effects of a 5 mg./kg. subcutaneous dose of morphine was in the range 2.5-5.0 mg./kg. and the minimum oral dose, 5-10 mg./kg.

For `O=C(O)/C=C\C(=O)O.Oc1cccc([C@@]23CCCC[C@H]2CN(CC2CC2)CC3)c1` (stereo in doubt) [Trans-l(-)-1-cyclopropylmethyl-3a-(m-hydroxyphenyl)-1,2,3,3a] [Trans-l(-)-1-cyclopropylmethyl-3a-(m-hydroxyphenyl)-1,2,3,3a,4,5,6,7,7a,8-decahydroisoquinoline maleate], the “toxicity relative to the dl mixture” value (toxicity (L.D.50)) was “less toxic than the dl mixture”, the “% Inhibition” value ([1]; 2 mg./kg. S.C.) was 47% and the “% Inhibition” value ([1]; 5 mg./kg. S.C.) was 72%. For the same molecule, the “Increase in Reaction Time Over Control” value (rat tail jerk; oral, 5 mg./kg., 60 min) was “.20 s”, the “Increase in Reaction Time Over Control” value (rat tail jerk; oral, 10 mg./kg., 60 min) was “.65 s” and the “Increase in Reaction Time Over Control” value (rat tail jerk; oral, 25 mg./kg., 60 min) was 1.30 s. The “Increase in Reaction Time Over Control” value (rat tail jerk; oral, 50 mg./kg., 30 min) was 2.25 s, the “Increase in Reaction Time Over Control” value (rat tail jerk; oral, 50 mg./kg., 60 min) was 2.80 s and the “Increase in Reaction Time Over Control” value (rat tail jerk; oral, 50 mg./kg., 120 min) was “.80 s”. The “Increase in Reaction Time Over Control” value (rat tail jerk; oral, 100 mg./kg., 60 min) was 3.15 s, the “Increase in Reaction Time Over Control” value (rat tail jerk; oral, 200 mg./kg., 30 min, 20 sec. cut off) was 4.90 s and the “Increase in Reaction Time Over Control” value (rat tail jerk; oral, 200 mg./kg., 60 min) was 5.40 s. The “Increase in Reaction Time Over Control” value (rat tail jerk; oral, 200 mg./kg., 120 min) was 2.65 s, the “Increase in Reaction Time Over Control” value (rat tail jerk; subcutaneous, 0.1 mg./kg., 30 min) was 85 s and the “Increase in Reaction Time Over Control” value (rat tail jerk; subcutaneous, 0.5 mg./kg., 30 min) was 1.30 s. For the same molecule, the “Increase in Reaction Time Over Control” value (rat tail jerk; subcutaneous, 1 mg./kg., 30 min) was 0 s, the “Increase in Reaction Time Over Control” value (rat tail jerk; subcutaneous, 5 mg./kg., 10 min) was 2.75 s and the “Increase in Reaction Time Over Control” value (rat tail jerk; subcutaneous, 5 mg./kg., 15 min) was 3.45 s. The “Increase in Reaction Time Over Control” value (rat tail jerk; subcutaneous, 5 mg./kg., 30 min) was 3.55 s and 2.95 s, the “Increase in Reaction Time Over Control” value (rat tail jerk; subcutaneous, 5 mg./kg., 30 min, 20 sec. cut off) was 6.65 s and 6.95 s and the “Increase in Reaction Time Over Control” value (rat tail jerk; subcutaneous, 5 mg./kg., 60 min) was 1.0 s. For the same molecule, the “Increase in Reaction Time Over Control” value (rat tail jerk; subcutaneous, 5 mg./kg., 120 min) was 0 s, the “Increase in Reaction Time Over Control” value (rat tail jerk; subcutaneous, 5 mg./kg., 180 min) was 0 s and the “Increase in Reaction Time Over Control” value (rat tail jerk; subcutaneous, 10 mg./kg., 10 min, 20 sec. cut off) was 7.30 s. For the same molecule, the “Increase in Reaction Time Over Control” value (rat tail jerk; subcutaneous, 10 mg./kg., 15 min) was 5.80 s, the “Increase in Reaction Time Over Control” value (rat tail jerk; subcutaneous, 10 mg./kg., 15 min, 20 sec. cut off) was 6.70 s and the “Increase in Reaction Time Over Control” value (rat tail jerk; subcutaneous, 10 mg./kg., 60 min) was 3.0 s. For the same molecule, the “Increase in Reaction Time Over Control” value (rat tail jerk; subcutaneous, 10 mg./kg., 90 min) was 2.55 s, the “Increase in Reaction Time Over Control” value (rat tail jerk; subcutaneous, 10 mg./kg., 120 min) was 4.0 s and the “Increase in Reaction Time Over Control” value (rat tail jerk; subcutaneous, 10 mg./kg., 180 min) was 1.50 s. For the same molecule, the “Increase in Reaction Time Over Control” value (rat tail jerk; subcutaneous, 50 mg./kg., 15 min) was 7.35 s, the “blocking on the morphine-induced Straub tail” value ([2]; 20 mg./kg.) was 100% and the “blocking on the morphine-induced Straub tail” value ([2]; 50 mg./kg.) was 100%. For the same molecule, the “blocking the morphine induced Straub tail” value ([2]; morphine 40 mg./kg.) was “manifests antagonistic effects in blocking the morphine induced Straub tail in mice” and the “dose showing antagonism of morphine” value (morphine) was 1 to 2 mg/kg.
